Data: patent US4015974A, “Amido phosphorothiolates” (priority 1972, dated 1977)

Columns and labels:
Assay type in all cases: in vivo
[1] = system: redroot pigweed (Amaranthus retroflexus); assay: Pre-emergence application, herbicidal effect on redroot pigweed (Table 1); design: key: 0: not damaged; 5: completely killed; details: 20 days after application, score 0-5
Source text: (§1) Seeds of barnyard grass (Echinochloa crus-galli) and large crabgrass (Digitaria sanguinalis) as representatives of grassy weeds and those of radish, redroot pigweed (Amaranthus retroflexus), common purslane (Portulaca oleracea) and common lambsquarter (Chenopodium album) as representatives of broad-leaved weeds were individually sowed in flower pots of about 10 cm. in diameter. After covering the seeds with soil, test compounds as shown in Table 1 were individually applied to the soil treatment. Thereafter the plants were grown in a green house and 20 days after application the herbicidal effects of the compounds were observed, the results of which are as shown in Table 1.
(§2) Herbicidal effects were evaluated by the numerals ranging from 0 (not damaged) to 5 (completely killed). All the test compounds were used in the form of wettable powder and diluted with water before application.

rice = assay: Water application, phytotoxicity on rice (Table 2); design: key: 0: no effect; 1: very slightly affected; 2: slightly affected; 3: moderately affected; 4: considerably affected; 5: completely killed; details: 25 days, score 0-5
Source text: (§3) Wagner pots of 14 cm. in diameter, which had been packed with 1.5 kg. of paddy field soil, were brought into the state of paddy fields. To the pots were transplanted rice seedlings at the 3-leave stage. Further, seeds of barnyard grass (Echinochloa crus-galli) were sowed in the pots and required amounts of test compounds were applied to the soil under water lodged condition. 25 days after application, the degrees of herbicidal activity and phytotoxity were investigated on above-mentioned plants which had been transplanted and sowed, and on broad-leaved weeds, e.g., monochoria (Monochoria viaginalis Presl.), false pimpernel (Linderna pyxidaria) and toothcup (Rotala indica Koehue), which had been spontaneously germinated. The test compounds were used in the form of wettable powder. The herbicidal effects and the phytotoxity were evaluated as follows by the numerals ranging from 0 to 5.

[2] = system: barnyard grass (Echinochloa crus-galli); assay: Water application, herbicidal effect on barnyard grass (Table 2); design: key: 0: not damaged; 5: completely killed; details: 25 days, score 0-5
Source text: as §3

[3] = system: large crabgrass (Digitaria sanguinalis); assay: Pre-emergence application, herbicidal effect on large crabgrass (Table 1); design: key: 0: not damaged; 5: completely killed; details: 20 days after application, score 0-5
Source text: as §1, §2

[4] = system: common lambsquarter (Chenopodium album); assay: Pre-emergence application, herbicidal effect on common lambsquarter (Table 1); design: key: 0: not damaged; 5: completely killed; details: 20 days after application, score 0-5
Source text: as §1, §2

[5] = system: barnyard grass (Echinochloa crus-galli); assay: Pre-emergence application, herbicidal effect on barnyard grass (Table 1); design: key: 0: not damaged; 5: completely killed; details: 20 days after application, score 0-5
Source text: as §1, §2

[6] = system: common purslane (Portulaca oleracea); assay: Pre-emergence application, herbicidal effect on common purslane (Table 1); design: key: 0: not damaged; 5: completely killed; details: 20 days after application, score 0-5
Source text: as §1, §2

radish = assay: Pre-emergence application, herbicidal effect on radish (Table 1); design: key: 0: not damaged; 5: completely killed; details: 20 days after application, score 0-5
Source text: as §1, §2

[7] = system: broad-leaved weeds, e.g., monochoria, false pimpernel and toothcup; assay: Water application, herbicidal effect on broad-leaved weeds (Table 2); design: key: 0: not damaged; 5: completely killed; details: 25 days, score 0-5
Source text: as §3

Row | Compound | Herbicidal effect, redroot pigweed ([1]; 10 g./a.) | Herbicidal effect, redroot pigweed ([1]; 20 g./a.) | Herbicidal effect, redroot pigweed ([1]; 40 g./a.) | Phytotoxicity on rice (rice; 10 g/a) | Phytotoxicity on rice (rice; 20 g/a) | Phytotoxicity on rice (rice; 40 g/a) | Herbicidal effects, barnyard grass ([2]; 10 g/a) | Herbicidal effects, barnyard grass ([2]; 20 g/a) | Herbicidal effects, barnyard grass ([2]; 40 g/a) | Herbicidal effect, large crabgrass ([3]; 10 g./a.) | Herbicidal effect, large crabgrass ([3]; 20 g./a.) | Herbicidal effect, large crabgrass ([3]; 40 g./a.) | Herbicidal effect, common lambsquarter ([4]; 10 g./a.) | Herbicidal effect, common lambsquarter ([4]; 20 g./a.) | Herbicidal effect, common lambsquarter ([4]; 40 g./a.) | Herbicidal effect, barnyard grass ([5]; 10 g./a.) | Herbicidal effect, barnyard grass ([5]; 20 g./a.) | Herbicidal effect, barnyard grass ([5]; 40 g./a.) | Herbicidal effect, common purslane ([6]; 10 g./a.) | Herbicidal effect, common purslane ([6]; 20 g./a.) | other results
1 | CCOP(=O)(SCC(=O)N1CCC(C)CC1)SC(C)CC (stereo not drawn) [Compound 27] | 3 | 4 | 5 | 0 | 0 | 0 | 5 | 5 | 5 | 5 | 5 | 5 | 4 | 4 | 5 | 4 | 5 | 5 | 4 | 4 | Herbicidal effect, common purslane ([6]; 40 g./a.): 4; Herbicidal effect, radish (radish; 10 g./a.): 0; Herbicidal effect, radish (radish; 20 g./a.): 0; Herbicidal effect, radish (radish; 40 g./a.): 0; Herbicidal effects, broad-leaved weeds ([7]; 10 g/a): 5; Herbicidal effects, broad-leaved weeds ([7]; 20 g/a): 5; Herbicidal effects, broad-leaved weeds ([7]; 40 g/a): 5
2 | CCCCCSP(=O)(OCC)SCC(=O)N1CCCC(C)C1 (stereo not drawn) [Compound 72] | 3 | 4 | 5 | 0 | 0 | 0 | 5 | 5 | 5 | 5 | 5 | 5 | 4 | 4 | 5 | 4 | 5 | 5 | 3 | 4 | Herbicidal effect, common purslane ([6]; 40 g./a.): 5; Herbicidal effect, radish (radish; 10 g./a.): 0; Herbicidal effect, radish (radish; 20 g./a.): 0; Herbicidal effect, radish (radish; 40 g./a.): 0; Herbicidal effects, broad-leaved weeds ([7]; 10 g/a): 5; Herbicidal effects, broad-leaved weeds ([7]; 20 g/a): 5; Herbicidal effects, broad-leaved weeds ([7]; 40 g/a): 5
3 | CCCOP(=O)(SCCC(C)C)SCC(=O)N1CCCCC1C (stereo not drawn) [Compound 69] | 4 | 5 | 5 | 0 | 0 | 1 | 5 | 5 | 5 | 5 | 5 | 5 | 4 | 5 | 5 | 4 | 5 | 5 | 4 | 5 | Herbicidal effect, common purslane ([6]; 40 g./a.): 5; Herbicidal effect, radish (radish; 10 g./a.): 0; Herbicidal effect, radish (radish; 20 g./a.): 0; Herbicidal effect, radish (radish; 40 g./a.): 0; Herbicidal effects, broad-leaved weeds ([7]; 10 g/a): 5; Herbicidal effects, broad-leaved weeds ([7]; 20 g/a): 5; Herbicidal effects, broad-leaved weeds ([7]; 40 g/a): 5
4 | C=C(C)CSP(=O)(OCC)SCC(=O)N1CCCCC1CC (stereo not drawn) [Compound 81] | 5 | 5 | 5 | 0 | 0 | 1 | 5 | 5 | 5 | 5 | 5 | 5 | 5 | 5 | 5 | 5 | 5 | 5 | 5 | 5 | Herbicidal effect, common purslane ([6]; 40 g./a.): 5; Herbicidal effect, radish (radish; 10 g./a.): 0; Herbicidal effect, radish (radish; 20 g./a.): 0; Herbicidal effect, radish (radish; 40 g./a.): 1; Herbicidal effects, broad-leaved weeds ([7]; 10 g/a): 5; Herbicidal effects, broad-leaved weeds ([7]; 20 g/a): 5; Herbicidal effects, broad-leaved weeds ([7]; 40 g/a): 5
5 | CCCCOP(=O)(SCC)SCC(=O)N1CCCCC1CC (stereo not drawn) [Compound 92] | 5 | 5 | 5 | 0 | 0 | 2 | 5 | 5 | 5 | 5 | 5 | 5 | 5 | 5 | 5 | 5 | 5 | 5 | 5 | 5 | Herbicidal effect, common purslane ([6]; 40 g./a.): 5; Herbicidal effect, radish (radish; 10 g./a.): 0; Herbicidal effect, radish (radish; 20 g./a.): 0; Herbicidal effect, radish (radish; 40 g./a.): 0; Herbicidal effects, broad-leaved weeds ([7]; 10 g/a): 5; Herbicidal effects, broad-leaved weeds ([7]; 20 g/a): 5; Herbicidal effects, broad-leaved weeds ([7]; 40 g/a): 5
6 | CCCCSP(=O)(OCCC)SCC(=O)N1CCCCC1CC (stereo not drawn) [Compound 86] | 4 | 5 | 5 | 0 | 0 | 0 | 5 | 5 | 5 | 5 | 5 | 5 | 5 | 5 | 5 | 5 | 5 | 5 | 5 | 5 | Herbicidal effect, common purslane ([6]; 40 g./a.): 5; Herbicidal effect, radish (radish; 10 g./a.): 0; Herbicidal effect, radish (radish; 20 g./a.): 0; Herbicidal effect, radish (radish; 40 g./a.): 0; Herbicidal effects, broad-leaved weeds ([7]; 10 g/a): 5; Herbicidal effects, broad-leaved weeds ([7]; 20 g/a): 5; Herbicidal effects, broad-leaved weeds ([7]; 40 g/a): 5
7 | CCOP(=O)(SCC(=O)N1CCCCC1C)SC(C)c1ccccc1 (stereo not drawn) [Compound 64] | 3 | 3 | 4 | 0 | 0 | 0 | 5 | 5 | 5 | 4 | 5 | 5 | 3 | 4 | 4 | 4 | 5 | 5 | 3 | 3 | Herbicidal effect, common purslane ([6]; 40 g./a.): 4; Herbicidal effect, radish (radish; 10 g./a.): 0; Herbicidal effect, radish (radish; 20 g./a.): 0; Herbicidal effect, radish (radish; 40 g./a.): 0; Herbicidal effects, broad-leaved weeds ([7]; 10 g/a): 5; Herbicidal effects, broad-leaved weeds ([7]; 20 g/a): 5; Herbicidal effects, broad-leaved weeds ([7]; 40 g/a): 5
